The record followed here is paper PMC3435281 (PLoS ONE, 2012).

One series concerns the target AHR A375V (AHR^d type) (Mus musculus, UniProt P30561, A375V). Put plainly: DRE-luciferase in COS-1 cells transfected with mAHR-A375V. The procedure: Figure 4 Splenocytes from wild-type and AHR^d mice analyzed by qPCR for CYP1A1. […] After 4 hours they were analyzed by qPCR for CYP1A1 analysis. The curves are normalized from 0 to 100% response. […] Cos-1 cells were transfected with an AHR containing the same point mutation (valine for alanine) thought to be responsible for the low affinity of the AHR^d isoform compared to AHR^b, and compared to the wild-type AHR response. These cells also harbor a luciferase gene next to the DRE. C. Cos-1 cells were exposed to TCDD. […] The graphs represent normalized data from 0 response to 100% response. They are representative of 2 independent experiments.
These cells also harbor a luciferase gene next to the DRE. […] The data in this figure is normalized from 0 to 100% response.
After 4 hours of treatment, cells were assayed with dual luciferase® reporter assay system (Promega, Madison, WI). The expressed luciferase activity was measured by MicroLumat Plus luminometer (Berthold Technologies, Hartfordshire, UK).

Another series deals with T1, rat AHR^b (5L) (Rattus norvegicus, UniProt P41738).
T1 construct: endogenous in cells; host or cells: rat hepatoma 5L cells
In words: EROD activity in rat hepatoma 5L cells. Particulars: 5L versus AHR^d-15 cells, 40 hours. Format: cell-based. The procedure:
(§1) We utilized the wild type rat hepatoma cell line, 5L, which harbors the high affinity AHR isoform, and our newly created AHR^d-15 cell line. […] Groups of control mice were given corn oil alone or BNF at the concentration of 120 mg/kg.
(§2) Figure 3 In Vitro dose response curves. A. Rat hepatoma cell lines bearing the murine AHR^d (AHR^d-15) or the rat AHR^b (5L) were incubated with increasing doses of TCDD in 96-well plates. After 40 hours, EROD activity was performed from whole cell lysate. (n = 3). […] (n = 3). C. Same assay as in A, with increasing doses of BNF. (n = 2). […] Following 48 hours, hepatic microsomal proteins were isolated and used for the assessment of EROD activity. Animals were treated in groups of 4. Error bars: S.D.
High-throughput analysis of EROD activity was assayed by adapting a protocol that was described elsewhere, [63]. Briefly, cells were seeded into 96-well plates at ∼ 60% density and treated with the test compounds for 36 hours. The cells were washed with PBS and lysed with 30 µL water and a cycle of freeze-thaw. To each well, 150 µL of 50 mM Hepes buffer containing 26.7 µM dicumarol and 13.3 µM ethoxyresorufin were added. The samples were incubated at 30°C for 20 minutes, and 50 µL of 0.5 mM β-NADPH were added to initiate the reaction. Fluorescence of the resorufin product was detected using the 544 nm excitation and 590 nm emission wavelength filter set.

The subject of the next series is DBA/2J mice (AHR^d). Put plainly: In vivo hepatic microsomal EROD activity, DBA/2J. Also noted: species or system mouse. To be noted: oral 30, 80 or 120 mg/kg, 48 hours. The protocol: as §1, §2
Hepatic microsomes were prepared by homogenizing 0.5 g of liver tissue in 5 mL of MENG buffer (25 mM buffer sodium morpholinopropane sulfonate buffer (pH 7.5) containing 0.025% (w/v) NaN3, 1 mM EGTA and 10% (v/v) glycerol). The homogenate was subjected to centrifugation at 10,000×g for 20 minutes, followed by centrifugation of the supernatant for 1 hour at 100,000×g and 4°C. The pellet was dissolved in 15 mM Tris-HCl buffer containing 250 mM sucrose (pH 8.0) and aliquots were stored at −80°C. Protein concentration was determined using the Bicinchoninic Acid Protein Assay Reagent (Pierce Biotechnology, Rockford, IL). […]

The subject of a further series is AHR^−/− splenocytes. Put plainly: CYP1A1 and IDO mRNA in AHR^−/− splenocytes. Format: cell-based, mouse. To be noted: null cells, SU5416 500 nM or IFN-γ 100 ng/ml, 4 hours. The source says: An important role for the AHR in the immune system, and specifically T-cell differentiation, has been recognized and continues to be characterized in the literature, [7]. Some ligands of the AHR have the ability to enhance Treg differentiation from naïve T-cells (TCDD, kynurenine), while others direct differentiation towards Th17 effector cells (FICZ). […] IDO has long been known to play a role in Treg generation, and may be central to the mechanism of Dendritic Cell (DC)-directed Treg generation. We as well as others have previously shown that IDO mRNA can be induced by ligands of the AHR, and that the mechanisms of IDO-directed Treg generation may depend on the AHR [25]. […] As described in the Methods, naïve T-cells were sorted using magnetic bead separation, and placed in culture for 5 days with allogeneic pDCs separated from BALB/C mice. SU5416, TCDD, FICZ, or media alone was added at the start of culture. After 5 days, cells were collected and mRNA harvested for qPCR analysis of IDO and FoxP3. […] We used a dose of 2 ng/ml TGF-β, which in our hands has been a suboptimal dose for Treg generation (4 ng/ml has been optimal in our hands). […]
A. Spleens were harvested from mice and processed in the standard fashion. […] Same assay as A, but mRNA for CYP1B1 and IDO were measured. […] Same assay as in C, but IDO mRNA was assessed. * - p≤0.05. * - p≤0.01. […]

Molecules are shown by their SMILES.

On to `Clc1cc2c(cc1Cl)Oc1cc(Cl)c(Cl)cc1O2` [TCDD, 2,3,7,8-tetrachlorodibenzo-p-dioxin], for which the EC50 on AHR A375V (AHR^d type) came to 2.47 nM. For the same molecule, the “shift of EROD dose-response to the left for the AHR^b isoform” value on rat AHR^b (5L) is listed as 1.5 orders of magnitude.
With `Cc1cc(C)c(C=C2C(=O)Nc3ccccc32)[nH]1` [SU5416, 3-(3,5-dimethyl-1H-pyrrol-2-ylmethylene)-1,3-dihydro-indole-2-one], the “hepatic EROD activity” value with DBA/2J mice (AHR^d) is reported as “dose-dependent increase”. Moreover, the “IDO mRNA induction” value in the series with AHR^−/− splenocytes was “not null cells”.

By EC50 is commonly meant the concentration needed to bring the measured effect to its halfway point.
